# Source: patent US10478440B2, “Pharmaceutical compositions for inhibiting angiogenesis comprising plant-derived natural compound” (INDUSTRY-ACADEMIC COOPERATION FOUNDATION, YONSEI UNIVERSITY, priority 2011, dated 2019)
# Columns and labels:
# HUVECs [1] = assay: Nicotine-induced tube formation of HUVECs; type: cell-based, human; details: nicotine 10 nM
# Experimental: Serum-starved HUVECs were stimulated by nicotine (10 nM) in the presence or absence of voacangine. […] The basal level capillary tube formation (a) and invasiveness (b) of HUVECs that remained in serum-free media were normalized to 100%. Matrigel (10 mg/mL) was used to coat a 48-well plate and allowed to polymerize for 1 h at 37° C. HUVECs (6×10^4 cells) were seeded on the surface of the Matrigel, and then test compounds were added for 4-16 h at 37° C. in the presence or absence of VEGF (30 ng/mL). Morphological changes in the cells and formation of tubular structures were observed under a microscope (IX71, Olympus) and photographed at 100× magnification (DP70, Olympus).
# HUVECs [2] = assay: Nicotine-induced endothelial cell invasion; type: cell-based, human; details: nicotine 10 nM
# Experimental: Serum-starved HUVECs were stimulated by nicotine (10 nM) in the presence or absence of voacangine. […] The basal level capillary tube formation (a) and invasiveness (b) of HUVECs that remained in serum-free media were normalized to 100%. To examine the invasiveness of HUVECs in vitro, we used a Transwell chamber system with 8.0-μm pore polycarbonate filter inserts. Briefly, the lower side of the filter was coated with gelatin (10 μL, 1 mg/mL) and the upper side was coated with Matrigel (10 μL, 3 mg/mL). […] The chamber was incubated at 37° C. for 18 h, and then the cells were fixed with 70% methanol and stained with hematoxylin and eosin. The invasiveness of cells was measured by counting the number of whole cells in the lower side of the filter using a microscope at 100× magnification, and cells were photographed at 100× magnification.
# HUVECs [3] = assay: MTT cell proliferation assay, HUVECs; type: cell-based, human
# Experimental: (§1) Human umbilical vascular endothelial cells (HUVECs) were grown for 7-11 passages in EGM-2 medium supplemented with 10% FBS. HepG2 (human liver carcinoma) cells were grown in RPMI 1640 containing 10% FBS and 1% antibiotics. All cell lines were maintained at 37° C. in a humidified 5% CO2 incubator. Cell proliferation was measured using a 3-(4,5-dimethylthiazol-2-yl)-2,5-diphenyltetrazolium bromide (MTT) colorimetric assay, and cell viability was assessed using Trypan blue staining.
# CHANG = assay: MTT cell proliferation assay, CHANG; type: cell-based; details: normal cells
# HeLa = assay: MTT cell proliferation assay, HeLa; type: cell-based; details: Homo sapiens, cancer cells
# HT1080 = assay: MTT cell proliferation assay, HT1080; type: cell-based; details: Homo sapiens, HT-1080; HT1080, cancer cells
# HepG2 = assay: MTT cell proliferation assay, HepG2; type: cell-based; details: Homo sapiens; HepG2, cancer cells
# Experimental: as §1
# HUVECs [4] = assay: Capillary tube formation assay (VEGF-induced); type: cell-based, human; details: VEGF 30 ng/mL, serum-starved HUVECs
# Experimental: Matrigel (10 mg/mL) was used to coat a 48-well plate and allowed to polymerize for 1 h at 37° C. HUVECs (6×10^4 cells) were seeded on the surface of the Matrigel, and then test compounds were added for 4-16 h at 37° C. in the presence or absence of VEGF (30 ng/mL). Morphological changes in the cells and formation of tubular structures were observed under a microscope (IX71, Olympus) and photographed at 100× magnification (DP70, Olympus).
# HUVECs [5] = assay: Chemoinvasion assay (VEGF-induced); type: cell-based, human; details: VEGF 30 ng/mL, serum-starved HUVECs
# Experimental: To examine the invasiveness of HUVECs in vitro, we used a Transwell chamber system with 8.0-μm pore polycarbonate filter inserts. Briefly, the lower side of the filter was coated with gelatin (10 μL, 1 mg/mL) and the upper side was coated with Matrigel (10 μL, 3 mg/mL). Test compounds were added to the lower chamber in the presence of VEGF (30 ng/mL), and HUVECs (7×10^5 cells) were placed in the upper chamber of the filter. The chamber was incubated at 37° C. for 18 h, and then the cells were fixed with 70% methanol and stained with hematoxylin and eosin. The invasiveness of cells was measured by counting the number of whole cells in the lower side of the filter using a microscope at 100× magnification, and cells were photographed at 100× magnification.
# [6] = test system: chick embryo chorioallantoic membrane (CAM); assay: Chorioallantoic membrane (CAM) assay; type: in vivo, chicken
# Experimental: The CAM assay was performed as described previously. Fertilized chicken eggs were kept in a humidified incubator at 37° C. for 3 days. Approximately 2-3 mL of egg albumin was removed with a hypodermic needle, allowing the CAM and yolk sac to drop away from the shell membrane. […] After further incubation for 2 days, 2-3 mL of Intralipose (Greencross Co, Suwon, Korea) was injected beneath the CAM and the membrane was observed under a microscope. Retinoic acid (RA) was used as a positive control.
# HIF-1α = assay: Western blot of HIF-1α under hypoxic conditions; type: cell-based, human; details: HepG2 cells during hypoxia
# Experimental: The cell lysates were separated by 10% SDS-PAGE, followed by transfer to PVDF membranes (Millipore, Bedford, Mass.) using standard electroblotting procedures. Blots were then blocked and immunolabeled overnight at 4° C. with primary antibodies, including anti-HIF-1α and anti-tubulin antibodies. Immunolabeling was detected by an enhanced chemiluminescence (ECL) kit (GE Healthcare, Buckinghamshire, UK) according to the manufacturer's instructions. For hypoxic conditions, cells were incubated at 5% CO2 with 1% O2 balanced with N2 in an anaerobic chamber (Forma).
# VEGF = assay: Measurement of VEGF by ELISA; type: cell-based, human; details: HepG2 cells
# Experimental: The VEGF concentration in media from voacangine-treated cells was determined using a VEGF Immunoassay kit (R&D Systems, Minneapolis, Minn.) according to the manufacturer's instructions. The results were expressed as concentration of VEGF relative to the total amount of VEGF from each well.
# HUVECs [7] = assay: In vitro tumor cell-induced angiogenesis assay (combinated-chemoinvasion assay); type: cell-based, human; details: HepG2 in lower chamber, without VEGF
# Experimental: To examine the invasive activity of […], a Transwell chamber system with 8.0-μm pore polycarbonate filter inserts was used. Briefly, the lower side of the filter was coated with gelatin (10 μL, 1 mg/mL) and the upper side was coated with Matrigel (10 μL, 3 mg/mL). Next, tumor cell HepG2 was added to the lower chamber. Test compounds were added to the lower chamber without VEGF and HUVECs (7×10^5 cells) were placed in the upper chamber of the filter. The chamber was incubated at 37° C. for 18 h, and then the cells were fixed with 70% methanol and stained with hematoxylin and eosin. Invasiveness was measured by counting the number of whole cells on the lower side of the filter using a microscope at 100× magnification, and cells were photographed at 100× magnification.
# capsaicin contraction = details: literature [9]; cited from earlier work
# HUVECs [8] = assay: Trypan blue cell viability; details: doses up to 20 μM for 3 days
smiles,measurement,setting,value
"CN1CCCC1c1cccnc1 (stereo not drawn) [nicotine, reference compound]",increase of angiogenesis (tube formation) activity,HUVECs [1]; serum-starved HUVECs,2.5 fold
same,increase of cell invasion activity,HUVECs [2]; serum-starved HUVECs,2.0 fold
"CC[C@H]1C[C@@H]2CN3CCc4c([nH]c5ccc(OC)cc45)[C@](C(=O)OC)(C2)C13 [voacangine, 12-methoxyibogamine-18-carboxylic acid methyl ester]",cell growth,"HUVECs [3]; 10 μM, 3 days, MTT",inhibited cell growth
same,IC50,"HUVECs [3]; Homo sapiens, HUVEC, HUVECs, normal cells",18 µM
same,growth inhibition on HUVECs versus other cell lines,HUVECs [3]; compared with other normal and cancer cell lines (Table 1),greater growth inhibition effect on HUVECs than on other normal and cancer cell lines
same,IC50,CHANG,26 µM
same,IC50,HeLa,23 µM
same,IC50,HT1080,33 µM
same,IC50,HepG2,42 µM
same,VEGF-induced tube formation,HUVECs [4],inhibited VEGF-induced tube formation in a dose-dependent manner
same,VEGF-induced invasiveness of HUVECs,HUVECs [5],inhibited the VEGF-induced enhanced invasiveness of HUVECs in a dose-dependent manner
same,capillary formation during CAM development,"[6]; 2 and 4 μg/egg, 2 days",dose-dependently inhibited capillary formation
same,signs of thrombosis or hemorrhage in CAM,[6]; 2 days treatment,no apparent signs of thrombosis or hemorrhage
same,expression level of HIF-1α,HIF-1α,dose-dependently reduced
same,synthesis of cyclin D1 and tubulin,HIF-1α; Western blot,without inhibiting the synthesis of other proteins
same,hypoxia-induced expression of VEGF,VEGF,inhibited the hypoxia-induced expression of VEGF
same,tumor cell-induced invasiveness of HUVECs by hypoxia,HUVECs [7],dose-dependently inhibited
same,nicotine-induced angiogenesis (tube formation),HUVECs [1],inhibit nicotine-induced angiogenesis
same,nicotine-induced invasion of HUVECs,HUVECs [2],inhibit nicotine-induced angiogenesis and invasion of HUVECs in a dose-dependent manner
same,capsaicin contraction,capsaicin contraction,inhibit capsaicin contraction in a dose-dependent manner
same,cytotoxicity on HUVECs (trypan blue exclusion),HUVECs [8],no cytotoxicity
